From US7445794B1, “Methods for treating human proliferative diseases, with a combination of fatty acid metabolism inhibitors and glycolytic inhibitors” (The Regents of the University of Colorado, priority 2004, dated 2008)

Tested on: HL60 MDR tumor
Assay: Tumor volume of HL60 MDR tumor implanted in nude mice
Type: in vivo
Conditions: for effect on tumor growth (in words): over the 21 day period, versus control
Excerpt: Mice were purchased from the Animal Production Program of National Cancer Institute, Frederick, Md. The animals used were Athymic Ncr-nu/nu (strain code 01B74). HL60 MDR cells were harvested and reconstituted at 1 million cells per 100 microliters of phosphate buffered saline. One million tumor cells per injection site were implanted subcutaneously on two sites of the animal's back. Treatments began at exactly seven days post tumor implantation. Tumor size/volume was monitored twice weekly using measurement calipers, with the formula Tumor Volume=π×(short diameter)^2×(long diameter)/6.
Treatment groups were: etomoxir at 200 micrograms/day; 2-deoxy-D-glucose at 2.5 mM in 100 microliters daily; and the combination daily of etomoxir at 200 micrograms and 2-deoxy-D-glucose at 2.5 mM in 100 microliters.
HL60 MDR human leukemia cells were cultured and implanted in nude mice as described above under “Materials and Methods”. The mice were given 200 ug of Etomoxir, 2.5 mM 2-Deoxy-D-glucose, or both 200 ug of Etomoxir and 2.5 mM 2-Deoxy-D-glucose given daily by IP injection. Treatment began exactly one week after tumor implantation.

| SMILES | effect on tumor growth (in words) | tumor volume Day 7 (Day 7 after implantation (start of daily IP treatment), etomoxir 200 ug, 2-deoxy-D-glucose 2.5 mM) [mm^3] |
| --- | --- | --- |
| OC[C@H]1O[C@H](O)CC(O)[C@@H]1O (stereo partly drawn) [2-deoxy-D-glucose] | increase in tumor growth | – |
| CCOC(=O)C1(CCCCCCOc2ccc(Cl)cc2)CO1 (stereo not drawn) [etomoxir, 2-(6-(4-chlorophenoxy)-hexyl)-oxirane-2-carboxylic acid ethyl ester] | increase in tumor growth | 36 |
